From patent US6518318B1, “Stimulating transport of glucose into animal tissue by the administration of pinitol” (priority 1999, dated 2003)

Columns and labels:
L6 Myoblasts = assay: Glucose uptake (glucose transport) in cell culture; type: cell-based; conditions: for GLUCOSE TRANSPORT: Table 3, control 151
Description: Glucose transport was tested and measured in accordance with the protocol set forth in Amira Kip et al., Induction of Sugar Uptake Response to Insulin by Serum Depletion in Fusing L6 Myoblasts, American Journal of Physiology, Vol. 247, No. 3, Part 1 (September 1984), herein incorporated by reference, except that the cell culture was preincubated for only 2 hours and the cells treated with varying concentrations of pinitol, insulin or a combination thereof as set forth in Tables One through Three. The raw data, in terms of “counts per minute” as measured with a scintillation counter, is provided in Tables One and Two, while calculated data, in terms of “pmol min^−1 mg protein^−1,” is provided in Table Three.

cells = assay: Glycogen formation (14-C glucose incorporation into ethanol-precipitable glycogen); type: cell-based
Description: The method for glycogen incorporation is similar to that of J. Berger and N. S. Hayes, Anal Biochem. 261: 159-163 (1998), one of several standard references for radiolabeled (14-C) glucose incorporation into ethanol-precipitable glycogen. Into each well was added 1.25 mil of 1% TritonX100. The wells were then placed on a rotating agitator for 30 minutes to dissolve the cells. A 1 ml sample was removed from each well and placed in a 10 ml plastic tube. Into each sample was added 1 ml of a solution containing 18% trichloroacetic acid and 2 mg/ml of glycogen (added as carrier). The treated samples were placed on ice for 20 minutes and then centrifuged for 10 minutes at 10,000 RPM with the supernatant transferred to new plastic tubes. The remaining solids were washed by adding 0.3 ml of the trichloracetic acid-glycogen solution to the pellet, and centrifuged again as before. The combined supernatants were added to 4 ml of ice cold ethanol and 0.25 ml of 2% sodium sulphate (to help precipitate glycogen, as in L. Y. Hung and L. A. Menahan, Biochemical Medicine, Vol. 24: 356-360 (1980)). This was left overnight at 4° C. The precipitate was collected the next day by centrilugation at 10,000 RPM for 10 min. The precipitate was redisolved in water (2 ml) and reprecipitated as before with ethanol and sodium sulphate. The precipitate was dissolved in water, added to scintillation fluid, and radioactivity determined.

[1] = Experiment Two, administered alone, at higher concentrations

`CO[C@H]1[C@H](O)[C@@H](O)[C@@H](O)[C@H](O)[C@@H]1O` [Pinitol] was tested, and the “stimulation of glucose transport (conclusion)” value (L6 Myoblasts; [1]) was “significant stimulation in glucose transport”, the “COUNTS PER MINUTE (glucose uptake)” value (L6 Myoblasts; Table 1, Pinitol 0.14 mM, raw data, control 5185) was 5221 counts per minute and the “COUNTS PER MINUTE (glucose uptake)” value (L6 Myoblasts; Table 1, Pinitol 1.44 mM, raw data, control 5185) was 6009 counts per minute. The “COUNTS PER MINUTE (glucose uptake)” value (L6 Myoblasts; Table 2, Pinitol 1.0 mM, control 3178) was 6007 counts per minute, the “GLUCOSE TRANSPORT” value (L6 Myoblasts; Pinitol 0.14 mM, calculated data) was 155 pmol · min^−1 · mg protein^−1 and the “stimulation of glucose transport (conclusion)” value (L6 Myoblasts; alone, higher concentrations (e.g., 1.44 mM)) was “significant stimulation in glucose transport”. The “stimulation of glucose transport (conclusion)” value (L6 Myoblasts; alone, low concentrations (e.g., 0.14 mM)) was “does not meaningfully stimulate glucose transport”, the “GLYCOGEN FORMATION 1st Set” value (cells; Table 4, Pinitol 1.4 mM) was 68.36 nmol/min/mg and the “GLYCOGEN FORMATION 2nd Set” value (cells; Table 4, Pinitol 1.4 mM) was 79.08 nmol/min/mg. For the same molecule, the “GLYCOGEN FORMATION 3rd Set” value (cells; Table 4, Pinitol 1.4 mM) was 64.37 nmol/min/mg, the “GLYCOGEN FORMATION Average” value (cells; Table 4, Pinitol 1.4 mM, control 52.44 ± 4.58) was 70.60 ± 7.61 nmol/min/mg and the “GLYCOGEN FORMATION 1st Set” value (cells; Table 4, Pinitol 144.0 mM) was 57.75 nmol/min/mg. The “GLYCOGEN FORMATION 2nd Set” value (cells; Table 4, Pinitol 144.0 mM) was 83.14 nmol/min/mg, the “GLYCOGEN FORMATION 3rd Set” value (cells; Table 4, Pinitol 144.0 mM) was 64.24 nmol/min/mg and the “GLYCOGEN FORMATION Average” value (cells; Table 4, Pinitol 144.0 mM, control 52.44 ± 4.58) was 68.38 ± 13.19 nmol/min/mg. The “GLYCOGEN FORMATION 1st Set” value (cells; Table Five, Pinitol 1.4 mM) was 102.40 nmol/min/mg, the “GLYCOGEN FORMATION 2nd Set” value (cells; Table Five, Pinitol 1.4 mM) was 117.18 nmol/min/mg and the “GLYCOGEN FORMATION 3rd Set” value (cells; Table Five, Pinitol 1.4 mM) was 183.05 nmol/min/mg. For the same molecule, the “GLYCOGEN FORMATION 4th Set” value (cells; Table Five, Pinitol 1.4 mM) was 113.15 nmol/min/mg, the “GLYCOGEN FORMATION 5th Set” value (cells; Table Five, Pinitol 1.4 mM) was 124.64 nmol/min/mg and the “GLYCOGEN FORMATION 6th Set” value (cells; Table Five, Pinitol 1.4 mM) was 158.40 nmol/min/mg. For the same molecule, the “GLYCOGEN FORMATION Average” value (cells; Table Five, Pinitol 1.4 mM, control 130.18 ± 20.87) was 133.14 ± 30.99 nmol/min/mg, the “GLYCOGEN FORMATION 1st Set” value (cells; Table Five, Pinitol 144 mM) was 123.03 nmol/min/mg and the “GLYCOGEN FORMATION 2nd Set” value (cells; Table Five, Pinitol 144 mM) was 211.04 nmol/min/mg. For the same molecule, the “GLYCOGEN FORMATION 3rd Set” value (cells; Table Five, Pinitol 144 mM) was 146.53 nmol/min/mg, the “GLYCOGEN FORMATION 4th Set” value (cells; Table Five, Pinitol 144 mM) was 192.74 nmol/min/mg and the “GLYCOGEN FORMATION 5th Set” value (cells; Table Five, Pinitol 144 mM) was 97.05 nmol/min/mg. For the same molecule, the “GLYCOGEN FORMATION 6th Set” value (cells; Table Five, Pinitol 144 mM) was 199.85 nmol/min/mg, the “GLYCOGEN FORMATION Average” value (cells; Table Five, Pinitol 144 mM, control 130.18 ± 20.87) was 161.71 ± 46.39 nmol/min/mg and the “stimulation of glycogen formation (conclusion)” value (cells; administered alone) was “significant stimulation in glycogen formation”.

For “Insulin: insulin, used to treat the cells alone or with pinitol as comparison”, the “stimulation of glucose transport (conclusion)” value (L6 Myoblasts; [1]) was “significant stimulation in glucose transport”, the “COUNTS PER MINUTE (glucose uptake)” value (L6 Myoblasts; Table 2, Insulin 10^−3 mM, control 3178) was 4477 counts per minute and the “GLUCOSE TRANSPORT” value (L6 Myoblasts; Insulin 10^−5 mM) was 200 pmol · min^−1 · mg protein^−1. The “GLYCOGEN FORMATION 1st Set” value (cells; Table 4, Insulin 10^−6 mM) was 136.27 nmol/min/mg, the “GLYCOGEN FORMATION 2nd Set” value (cells; Table 4, Insulin 10^−6 mM) was 96.14 nmol/min/mg and the “GLYCOGEN FORMATION 3rd Set” value (cells; Table 4, Insulin 10^−6 mM) was 212.09 nmol/min/mg. The “GLYCOGEN FORMATION Average” value (cells; Table 4, Insulin 10^−6 mM, control 52.44 ± 4.58) was 148.17 ± 58.89 nmol/min/mg, the “GLYCOGEN FORMATION 1st Set” value (cells; Table 4, Insulin 10^−8 mM) was 68.45 nmol/min/mg and the “GLYCOGEN FORMATION 2nd Set” value (cells; Table 4, Insulin 10^−8 mM) was 75.36 nmol/min/mg. For the same molecule, the “GLYCOGEN FORMATION Average” value (cells; Table 4, Insulin 10^−8 mM, control 52.44 ± 4.58) was 71.90 ± 4.89 nmol/min/mg, the “GLYCOGEN FORMATION 1st Set” value (cells; Table Five, Insulin 10^−7 M) was 186.52 nmol/min/mg and the “GLYCOGEN FORMATION 2nd Set” value (cells; Table Five, Insulin 10^−7 M) was 179.88 nmol/min/mg. The “GLYCOGEN FORMATION 3rd Set” value (cells; Table Five, Insulin 10^−7 M) was 79.32 nmol/min/mg, the “GLYCOGEN FORMATION 4th Set” value (cells; Table Five, Insulin 10^−7 M) was 167.44 nmol/min/mg and the “GLYCOGEN FORMATION 5th Set” value (cells; Table Five, Insulin 10^−7 M) was 136.35 nmol/min/mg. For the same molecule, the “GLYCOGEN FORMATION Average” value (cells; Table Five, Insulin 10^−7 M, control 130.18 ± 20.87) was 149.90 ± 43.91 nmol/min/mg.
